Assay [1] relates to IL-27 induced CXCL9 secretion in EpiAirway tissue cultures. Briefly: Assay 15: IL-27 induced CXCL9 in human 3D airway cultures. Type of assay: cell-based. The settings on record: 192 h, Day 8, average from 3 or 4 donors, read-out: % inhibition of IL-27 induced CXCL9 secretion (±STDV). On the procedure: EpiAirway tissue cultures were obtained from Mattek (AIR-100). Cultures were derived from asthmatic donors. In a cell culture insert, human derived tracheal/bronchial epithelial cells were grown and differentiated on a porous membrane support, allowing an air-liquid interface with warmed culture medium below the cells and a gaseous test atmosphere above. Tissues were cultured in maintenance media (Mattek, AIR-100-MM) in a 37° C., 5% CO2 humidified incubator. Four donors were tested. On Day 0, tissue cultures were treated with test compounds at 10 μM, 1 μM and/or 0.1 μM. Compounds were diluted in dimethyl sulfoxide (DMSO, Sigma) to a final concentration of 0.1%. DMSO at 0.1% was used as a vehicle control. Test compounds were incubated with cultures for 1 hour at 37° C., 5% CO2, followed by the addition of pre-warmed media containing IFNγ (R&D Systems) or IL-27 (R&D Systems) at a final concentration at 100 ng/ml. Tissue cultures were maintained for 8 days. Media was replaced every 2 days with fresh media containing compounds and IFNγ or IL-27. On Day 8, tissue cultures and supernatants were collected for analysis. Supernatant samples were assayed for CXCL10 (IP-10) and CXCL9 (MIG) using luminex analysis (EMD Millipore). Data is expressed as % Inhibition +/−standard deviation (±STDV). Percent inhibition was determined by compound inhibitory potency against IFNγ or IL-27 induced CXCL10 or CXCL9 secretion compared to vehicle treated cells. Data is the average from 3 or 4 donors. Compound 1 was able to inhibit IFNγ induced CXCL10 secretion by 99%±2.0 (at 10 μM), 71%±19 (at […]) and 17%±12 (at 0.1 μM) when compared to vehicle control. Compound 1 was able to inhibit IFNγ induced CXCL9 secretion by 100%±0.3 (at 10 μM), 99%±0.9 (at 1 μM) and 74%±17 (at 0.1 μM) when compared to vehicle. […] Compound 1 was able to inhibit IL-27 induced CXCL9 secretion by 100%±0 (at 10 μM), 95%±3.7 (at 1 μM) and 75%±3.5 (at 0.1 μM) when compared to vehicle control.

The subject of assay [2] is IL-4 stimulated pSTAT6 in CD3+ T cells. Briefly: Assay 5: Inhibition of IL-4 stimulated pSTAT6 in CD3+ T cells. The settings on record: T-cell; CD3+ T cells in human PBMCs, flow cytometry; read-out: pIC50, inhibition of IL-4 stimulated pSTAT6 (converted). Type of assay: cell-based. The method, then: The potency of the test compound for inhibition of interleukin-4 (IL-4) stimulated STAT6 phosphorylation was measured in CD3-positive (CD3+) T cells in human peripheral blood mononuclear cells (PBMCs) isolated from human whole blood (Stanford Blood Center) using flow cytometry. Because IL-4 signals through JAK, this assay provides a measure of JAK cellular potency.
CD3+ T cells were identified using a […] (PE) conjugated anti-CD3 antibody (Clone UCHT1, BD Biosciences), while an Alexa Fluor 647 conjugated anti-pSTAT6 antibody (pY641, Clone 18/P, BD Biosciences) was used to detect STAT6 phosphorylation.
Human peripheral blood mononuclear cells (PBMC) were isolated from human whole blood of healthy donors as in Assays 3 and 4. […] After incubation, cells were washed twice in FACS buffer before being analyzed using a LSRII flow cytometer (BD Biosciences).
To determine the inhibitory potency of the test compound in response to IL-4, the median fluorescent intensity (MFI) of pSTAT6 was measured in CD3+ T cells. IC50 values were determined from analysis of the inhibition curves of MFI vs compound concentration. Data are expressed as pIC50 (negative decadic logarithm IC50).
(In general: In flow cytometry, cells or beads pass a laser one at a time.)

One may read the inhibition as the share of the control response that was lost under treatment. `CCc1cc(O)c(F)cc1-c1ccc2c(-c3nc4c([nH]3)CCN(C3CCN(C)CC3)C4)n[nH]c2c1` [Compound 1, 5-ethyl-2-fluoro-4-(3-(5-(1-methylpiperidin-4-yl)-4,5,6,7-tetrahydro-1H-imidazo[4,5-c]pyridin-2-yl)-1H-indazol-6-yl)phenol]: the inhibition at 0.1 µM in assay [1] (at 0.1 μM) came out at 75%. Moreover, in assay [1] (at 1 μM), the inhibition at 1 µM amounted to 95%. For the same compound, the inhibition at 10 µM in assay [1] (at 10 μM) stood at 100%. The IC50 in assay [2] was 7.94 nM.

The values above are taken from patent US10251874B2, “Crystalline forms of a JAK inhibitor compound” (THERAVANCE BIOPHARMA R&D IP, LLC, priority 2017, dated 2019).
